Laboratory results taken from patent US8404679B2, “Pyrrolidine derivatives as NK2 receptor antagonists” (Hoffmann-La Roche Inc., priority 2008, dated 2013).

molecular target: T1, human NK2 receptor (Homo sapiens, UniProt P21452); assay: [3H]SR48968 competition binding assay; conditions: [3H]SR48968 displacement, membranes of CHO cells stably expressing recombinant human NK2 receptor; Ki from IC50 by Cheng-Prussoff
T1 construct: purchased Perkin Elmer biosignal Inc. 6110510
T1 sequence (P21452 1-398): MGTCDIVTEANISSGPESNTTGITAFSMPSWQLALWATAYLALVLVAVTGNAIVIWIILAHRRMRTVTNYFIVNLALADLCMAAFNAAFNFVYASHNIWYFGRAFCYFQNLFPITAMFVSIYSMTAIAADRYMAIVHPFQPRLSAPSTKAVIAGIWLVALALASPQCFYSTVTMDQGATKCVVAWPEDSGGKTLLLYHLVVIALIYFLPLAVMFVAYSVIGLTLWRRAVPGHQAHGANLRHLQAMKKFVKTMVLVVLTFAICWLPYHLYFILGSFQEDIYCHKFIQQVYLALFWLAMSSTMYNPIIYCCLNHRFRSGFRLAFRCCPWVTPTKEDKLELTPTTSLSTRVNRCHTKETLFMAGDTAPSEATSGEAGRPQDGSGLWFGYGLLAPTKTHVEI
How it was run: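 Membranes from CHO cells stably expressing recombinant human NK2 were incubated 75 min at RT with [3H]SR48968 at its KD and 10 compound concentrations (0.0003–10 μM) in Tris-HCl pH 7.4, MnCl2, chymostatin, BSA. Filter-bound radioactivity was counted; Hill-fitted IC50 converted to Ki via Cheng-Prusoff.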

SMILES	Ki [nM]
COc1ccc(C(=O)N(C)[C@H]2CN(C(=O)C3CCN(CCC(F)(F)F)CC3)C[C@@H]2c2ccc(Cl)c(Cl)c2)cc1C(F)(F)F (racemic) [Example 139, N-{(3RS,4SR)-4-(3,4-Dichloro-phenyl)-1-[1-(3,3,3-trifluoro-propyl)-piperidine-4-carbonyl]-pyrrolidin-3-yl}-4-methoxy-N-methyl-3-trifluoromethyl-benzamide]	0.6
COc1ccc(C(=O)N(C)[C@H]2CN(C(=O)C3CCN(S(=O)(=O)C4CC4)CC3)C[C@@H]2c2ccc(Cl)c(Cl)c2)cc1C(F)(F)F (racemic) [Example 141, N-[(3RS,4SR)-1-(1-Cyclopropanesulfonyl-piperidine-4-carbonyl)-4-(3,4-dichloro-phenyl)-pyrrolidin-3-yl]-4-methoxy-N-methyl-3-trifluoromethyl-benzamide]	0.7
COc1ccc(C(=O)N(C)[C@H]2CN(C(=O)C3CCN(CCC#N)CC3)C[C@@H]2c2ccc(Cl)c(Cl)c2)cc1C(F)(F)F (racemic) [Example 142, N-[(3RS,4SR)-1-[1-(2-Cyano-ethyl)-piperidine-4-carbonyl]-4-(3,4-dichloro-phenyl)-pyrrolidin-3-yl]-4-methoxy-N-methyl-3-trifluoromethyl-benzamide]	0.4
C=C(F)CN1CCC(C(=O)N2C[C@H](c3ccc(Cl)c(Cl)c3)[C@@H](N(C)C(=O)c3ccc(OC)c(C(F)(F)F)c3)C2)CC1 (racemic) [Example 148, N-{(3RS,4SR)-4-(3,4-Dichloro-phenyl)-1-[1-(2-fluoro-allyl)-piperidine-4-carbonyl]-pyrrolidin-3-yl}-4-methoxy-N-methyl-3-trifluoromethyl-benzamide]	0.5
CN(C(=O)CC1CCCC1)[C@H]1CN(C(=O)C2CCN(CC3CC3)CC2)C[C@@H]1c1ccc(Cl)c(Cl)c1 (racemic) [Example 151, 2-Cyclopentyl-N-[(3RS,4SR)-1-(1-cyclopropylmethyl-piperidine-4-carbonyl)-4-(3,4-dichloro-phenyl)-pyrrolidin-3-yl]-N-methyl-acetamide]	6.7
CN(C(=O)Cc1ccc(Cl)cc1)[C@H]1CN(C(=O)C2CCN(CC3CC3)CC2)C[C@@H]1c1ccc(Cl)c(Cl)c1 (racemic) [Example 158, 2-(4-Chloro-phenyl)-N-[(3RS,4SR)-1-(1-cyclopropylmethyl-piperidine-4-carbonyl)-4-(3,4-dichloro-phenyl)-pyrrolidin-3-yl]-N-methyl-acetamide]	25.4
CN(C(=O)c1ccc(Cl)c(C(F)(F)F)c1)[C@H]1CN(C(=O)C2CCNCC2)C[C@@H]1c1ccc(Cl)cc1 (racemic) [Example 160, 4-Chloro-N-[(3RS,4SR)-4-(4-chloro-phenyl)-1-(piperidine-4-carbonyl)-pyrrolidin-3-yl]-N-methyl-3-trifluoromethyl-benzamide]	5
CN(C(=O)c1ccc(Cl)c(C(F)(F)F)c1)[C@H]1CN(C(=O)C2CCN(C3CCOCC3)CC2)C[C@@H]1c1ccc(Cl)cc1 (racemic) [Example 162, 4-Chloro-N-{(3RS,4SR)-4-(4-chloro-phenyl)-1-[1-(tetrahydro-pyran-4-yl)-piperidine-4-carbonyl]-pyrrolidin-3-yl}-N-methyl-3-trifluoromethyl-benzamide]	0.4
CN(C(=O)c1ccc(Cl)c(C(F)(F)F)c1)[C@H]1CN(C(=O)C2CCN(CC#N)CC2)C[C@@H]1c1ccc(Cl)cc1 (racemic) [Example 163, 4-Chloro-N-[(3RS,4SR)-4-(4-chloro-phenyl)-1-(1-cyanomethyl-piperidine-4-carbonyl)-pyrrolidin-3-yl]-N-methyl-3-trifluoromethyl-benzamide]	3.7
CN(C(=O)c1cc(C(F)(F)F)ccn1)[C@H]1CN(C(=O)C2CCN(C(=O)C3(C)CC3)CC2)C[C@@H]1c1ccc(Cl)c(Cl)c1 (racemic) [Example 166, 4-Trifluoromethyl-pyridine-2-carboxylic acid {(3RS,4SR)-4-(3,4-dichloro-phenyl)-1-[1-(1-methyl-cyclopropanecarbonyl)-piperidine-4-carbonyl]-pyrrolidin-3-yl}-methyl-amide]	0.7

The remaining molecules from weak to strong by Ki, led by results:

Ki [nM]	SMILES
43.3	CC(C(=O)N(C)[C@H]1CN(C(=O)C2CCN(CC3CC3)CC2)C[C@@H]1c1ccc(Cl)c(Cl)c1)c1ccc(F)cc1 (mixture of isomers) [Example 159, N-[(3RS,4SR)-1-(1-Cyclopropylmethyl-piperidine-4-carbonyl)-4-(3,4-dichloro-phenyl)-pyrrolidin-3-yl]-2-(4-fluoro-phenyl)-N-methyl-propionamide]
26.9	CN(C(=O)Cc1ccc(F)cc1)C1CN(C(=O)C2CCN(CC3CC3)CC2)CC1c1ccc(Cl)c(Cl)c1 (racemic) [Example 143, N-[(3RS,4RS)-1-(1-Cyclopropylmethyl-piperidine-4-carbonyl)-4-(3,4-dichloro-phenyl)-pyrrolidin-3-yl]-2-(4-fluoro-phenyl)-N-methyl-acetamide]
23	CN(C(=O)Cc1cccc(F)c1F)[C@H]1CN(C(=O)C2CCN(CC3CC3)CC2)C[C@@H]1c1ccc(Cl)c(Cl)c1 (racemic) [Example 152, N-[(3RS,4SR)-1-(1-Cyclopropylmethyl-piperidine-4-carbonyl)-4-(3,4-dichloro-phenyl)-pyrrolidin-3-yl]-2-(2,3-difluoro-phenyl)-N-methyl-acetamide]
19.8	CN(C(=O)Cc1ccc(F)c(F)c1)[C@H]1CN(C(=O)C2CCN(CC3CC3)CC2)C[C@@H]1c1ccc(Cl)c(Cl)c1 (racemic) [Example 150, N-[(3RS,4SR)-1-(1-Cyclopropylmethyl-piperidine-4-carbonyl)-4-(3,4-dichloro-phenyl)-pyrrolidin-3-yl]-2-(3,4-difluoro-phenyl)-N-methyl-acetamide]
1.7	CN(C(=O)c1ccc(Cl)c(C(F)(F)F)c1)[C@H]1CN(C(=O)C2CCN(S(=O)(=O)C3CC3)CC2)C[C@@H]1c1ccc(Cl)cc1 (racemic) [Example 161, 4-Chloro-N-[(3RS,4SR)-4-(4-chloro-phenyl)-1-(1-cyclopropanesulfonyl-piperidine-4-carbonyl)-pyrrolidin-3-yl]-N-methyl-3-trifluoromethyl-benzamide]
1.4	COc1ccc(C(=O)N(C)[C@H]2CN(C(=O)c3ccc(-c4nc(C)no4)cc3)C[C@@H]2c2ccc(Cl)c(Cl)c2)cc1C(F)(F)F (racemic) [Example 147, N-{(3RS,4SR)-4-(3,4-Dichloro-phenyl)-1-[4-(3-methyl-[1,2,4]oxadiazol-5-yl)-benzoyl]-pyrrolidin-3-yl}-4-methoxy-N-methyl-3-trifluoromethyl-benzamide]
1.3	CN(C(=O)c1ccc(Cl)c(C(F)(F)F)c1)[C@H]1CN(C(=O)C2CCN(CCC#N)CC2)C[C@@H]1c1ccc(Cl)cc1 (racemic) [Example 165, 4-Chloro-N-{(3RS,4SR)-4-(4-chloro-phenyl)-1-[1-(2-cyano-ethyl)-piperidine-4-carbonyl]-pyrrolidin-3-yl}-N-methyl-3-trifluoromethyl-benzamide]
1.1	CCOC(=O)N1CCC(C(=O)N2C[C@H](c3ccc(Cl)c(Cl)c3)[C@@H](N(C)C(=O)c3ccc(OC)c(C(F)(F)F)c3)C2)CC1 (racemic) [Example 145, 4-{(3SR,4RS)-3-(3,4-Dichloro-phenyl)-4-[(4-methoxy-3-trifluoromethyl-benzoyl)-methyl-amino]-pyrrolidine-1-carbonyl}-piperidine-1-carboxylic acid ethyl ester]
0.9	COCCN1CCC(C(=O)N2C[C@H](c3ccc(Cl)c(Cl)c3)[C@@H](N(C)C(=O)c3ccc(OC)c(C(F)(F)F)c3)C2)CC1 (racemic) [Example 144, N-{(3RS,4SR)-4-(3,4-Dichloro-phenyl)-1-[1-(2-methoxy-ethyl)-piperidine-4-carbonyl]-pyrrolidin-3-yl}-4-methoxy-N-methyl-3-trifluoromethyl-benzamide]
0.8	CN(C(=O)c1ccc(Cl)c(Br)c1)[C@H]1CN(C(=O)C2CCN(C(=O)C3(C)CC3)CC2)C[C@@H]1c1ccc(Cl)c(Cl)c1 (racemic) [Example 171, 3-Bromo-4-chloro-N-{(3RS,4SR)-4-(3,4-dichloro-phenyl)-1-[1-(1-methyl-cyclopropanecarbonyl)-piperidine-4-carbonyl]-pyrrolidin-3-yl}-N-methyl-benzamide]
0.7	CCS(=O)(=O)N1CCC(C(=O)N2C[C@H](c3ccc(Cl)c(Cl)c3)[C@@H](N(C)C(=O)c3ccc(OC)c(C(F)(F)F)c3)C2)CC1 (racemic) [Example 140, N-[(3RS,4SR)-4-(3,4-Dichloro-phenyl)-1-(1-ethanesulfonyl-piperidine-4-carbonyl)-pyrrolidin-3-yl]-4-methoxy-N-methyl-3-trifluoromethyl-benzamide]
0.5	COc1ccc(C(=O)N(C)[C@H]2CN(C(=O)C3CCN(CC4CC4)CC3)C[C@@H]2c2ccc(Cl)c(Cl)c2)cc1C(F)(F)F (racemic) [Example 138, N-[(3RS,4SR)-1-(1-Cyclopropylmethyl-piperidine-4-carbonyl)-4-(3,4-dichloro-phenyl)-pyrrolidin-3-yl]-4-methoxy-N-methyl-3-trifluoromethyl-benzamide]
0.5	CN(C(=O)c1ccc(Cl)c(C(F)(F)F)c1)[C@H]1CN(C(=O)C2CCN(CC3CC3)CC2)C[C@@H]1c1ccc(Cl)c(Cl)c1 (racemic) [Example 164, 4-Chloro-N-[(3RS,4SR)-1-(1-cyclopropylmethyl-piperidine-4-carbonyl)-4-(3,4-dichloro-phenyl)-pyrrolidin-3-yl]-N-methyl-3-trifluoromethyl-benzamide]
